Active and inactive are the calls of the source. No rule for the calls is given here.
Test system: CCRIS mutagenicity, Ames/micronucleus/aberration tests
Assay: CCRIS mutagenicity studies
[1] = Test System: AMES SALMONELLA TYPHIMURIUM, Strain/Indicator: TA98, Metabolic Activation: NONE, Method: STANDARD PLATE
[2] = Test System: AMES SALMONELLA TYPHIMURIUM, Strain/Indicator: TA98, Metabolic Activation: RAT, LIVER, S-9, AROCLOR 1254, Method: STANDARD PLATE
[3] = Test System: AMES SALMONELLA TYPHIMURIUM, Strain/Indicator: TA100, Metabolic Activation: NONE, Method: STANDARD PLATE
[4] = Test System: AMES SALMONELLA TYPHIMURIUM, Strain/Indicator: TA100, Metabolic Activation: RAT, LIVER, S-9, AROCLOR 1254, Method: STANDARD PLATE

Measured: mutagenic call

Cc1ccc(NC(=O)c2ccc(CN3CCN(C)CC3)cc2)cc1Nc1nccc(-c2cccnc2)n1
active: End Point: IN VITRO CHROMOSOMAL ABERRATIONS, Test System: CHINESE HAMSTER EMBRYO (CHE), Metabolic Activation: NONE active; positive (structural and numerical changes) | End Point: IN VITRO CHROMOSOMAL ABERRATIONS, Test System: INDIAN MUNTJAK FIBROBLASTS (IMF), Metabolic Activation: NONE active; positive (numerical changes) | End Point: IN VITRO CHROMOSOMAL ABERRATIONS, Test System: NORMAL HUMAN DERMAL FIBROBLASTS (NHDF), Metabolic Activation: NONE active; positive (structural changes)

COc1cccc2c1C(=O)c1c(O)c3c(c(O)c1C2=O)C[C@@](O)(C(C)=O)C[C@@H]3O
active: [1] active; positive | [2] active; positive
inactive: [3] inactive; negative | Test System: AMES SALMONELLA TYPHIMURIUM, Strain/Indicator: TA1538, Metabolic Activation: NONE, Method: STANDARD PLATE inactive; negative

COc1ccc(C=CC(=O)c2ccccc2)cc1
inactive: [1] inactive; negative | [2] inactive; negative | [3] inactive; negative | [4] inactive; negative

ClC(COCC(Cl)C(Cl)(Cl)Cl)C(Cl)(Cl)Cl (stereo unspecified)
inactive: Test System: AMES SALMONELLA TYPHIMURIUM, Strain/Indicator: TA98, Metabolic Activation: NONE, Method: MICROSUSPENSION inactive; negative | Test System: AMES SALMONELLA TYPHIMURIUM, Strain/Indicator: TA98, Metabolic Activation: S-9, Method: MICROSUSPENSION inactive; negative | Test System: AMES SALMONELLA TYPHIMURIUM, Strain/Indicator: TA100, Metabolic Activation: S-9, Method: MICROSUSPENSION inactive; negative
active: Test System: AMES SALMONELLA TYPHIMURIUM, Strain/Indicator: TA100, Metabolic Activation: NONE, Method: MICROSUSPENSION active; positive

Cc1ccc2nc3c(ccc4ccccc43)cc2c1
inactive: Test System: AMES SALMONELLA TYPHIMURIUM, Strain/Indicator: TA97A, Metabolic Activation: NONE, Method: PREINCUBATION inactive; negative | Test System: AMES SALMONELLA TYPHIMURIUM, Strain/Indicator: TA98, Metabolic Activation: NONE, Method: PREINCUBATION inactive; negative
active: Test System: AMES SALMONELLA TYPHIMURIUM, Strain/Indicator: TA100, Metabolic Activation: NONE, Method: PREINCUBATION active; positive | Test System: AMES SALMONELLA TYPHIMURIUM, Strain/Indicator: TA102, Metabolic Activation: NONE, Method: PREINCUBATION active; positive

O=c1nc(NO)ccn1[C@@H]1O[C@H](CO)[C@@H](O)[C@H]1O
active: Test System: E. COLI, Strain/Indicator: WP2, Metabolic Activation: NONE, Method: STANDARD PLATE active; positive | Test System: E. COLI, Strain/Indicator: WP2 UVRA, Metabolic Activation: NONE, Method: STANDARD PLATE active; positive

CC1=CCC(=O)O1
inactive: [1] inactive; negative | [2] inactive; negative | [3] inactive; negative | [4] inactive; negative

Cc1nc2ccc3ccc4ccc(O)cc4c3c2o1
active: [2] active; positive | Test System: AMES SALMONELLA TYPHIMURIUM, Strain/Indicator: TA98, Metabolic Activation: RAT, LIVER, S-9, AROCLOR, Method: STANDARD PLATE active; positive

CC1(C)CC(C(=O)O)C(C)(C)N1[O] (stereo unspecified)
inactive: [1] inactive; negative | [3] inactive; negative | Test System: AMES SALMONELLA TYPHIMURIUM, Strain/Indicator: TA102, Metabolic Activation: NONE, Method: STANDARD PLATE inactive; negative | Test System: AMES SALMONELLA TYPHIMURIUM, Strain/Indicator: TA102, Metabolic Activation: XANTHINE OXIDASE, Method: STANDARD PLATE inactive; negative | Test System: AMES SALMONELLA TYPHIMURIUM, Strain/Indicator: TA104, Metabolic Activation: NONE, Method: STANDARD PLATE inactive; negative | Test System: AMES SALMONELLA TYPHIMURIUM, Strain/Indicator: TA104, Metabolic Activation: XANTHINE OXIDASE, Method: STANDARD PLATE inactive; negative

CC(=O)OCC(=O)[C@@]1(OC(C)=O)CC[C@H]2[C@@H]3C[C@@H](F)C4=CC(=O)C(Br)=C[C@]4(C)[C@@]3(F)[C@@H](O)C[C@@]21C
inactive: Test System: AMES SALMONELLA TYPHIMURIUM, Strain/Indicator: TA98, Metabolic Activation: NONE inactive; negative | Test System: AMES SALMONELLA TYPHIMURIUM, Strain/Indicator: TA98, Metabolic Activation: S-9 inactive; negative | Test System: AMES SALMONELLA TYPHIMURIUM, Strain/Indicator: TA100, Metabolic Activation: NONE inactive; negative | Test System: AMES SALMONELLA TYPHIMURIUM, Strain/Indicator: TA100, Metabolic Activation: S-9 inactive; negative | Test System: AMES SALMONELLA TYPHIMURIUM, Strain/Indicator: TA1535, Metabolic Activation: NONE inactive; negative | Test System: AMES SALMONELLA TYPHIMURIUM, Strain/Indicator: TA1535, Metabolic Activation: S-9 inactive; negative | Test System: AMES SALMONELLA TYPHIMURIUM, Strain/Indicator: TA1537, Metabolic Activation: NONE inactive; negative | Test System: AMES SALMONELLA TYPHIMURIUM, Strain/Indicator: TA1537, Metabolic Activation: S-9 inactive; negative | Test System: AMES SALMONELLA TYPHIMURIUM, Strain/Indicator: TA1538, Metabolic Activation: NONE inactive; negative | Test System: E. COLI, Strain/Indicator: WP2, Metabolic Activation: NONE inactive; negative | Test System: E. COLI, Strain/Indicator: WP2, Metabolic Activation: S-9 inactive; negative | Test System: E. COLI, Strain/Indicator: WP2 UVRA, Metabolic Activation: NONE inactive; negative | Test System: E. COLI, Strain/Indicator: WP2 UVRA, Metabolic Activation: S-9 inactive; negative
